The record followed here is patent US9987256B2, “CFTR corrector for the treatment of genetic disorders affecting striated muscle” (UNIVERSITA' DEGLI STUDI DI PADOVA, priority 2012, dated 2018).

Test [1] concerns the target T1, R98H mutant of alpha-sarcoglycan (Homo sapiens, UniProt Q16586, R98H).
T1 construct: expressed in transfected cells; host or cells: HEK293
T1 sequence (Q16586 24-387 R98H): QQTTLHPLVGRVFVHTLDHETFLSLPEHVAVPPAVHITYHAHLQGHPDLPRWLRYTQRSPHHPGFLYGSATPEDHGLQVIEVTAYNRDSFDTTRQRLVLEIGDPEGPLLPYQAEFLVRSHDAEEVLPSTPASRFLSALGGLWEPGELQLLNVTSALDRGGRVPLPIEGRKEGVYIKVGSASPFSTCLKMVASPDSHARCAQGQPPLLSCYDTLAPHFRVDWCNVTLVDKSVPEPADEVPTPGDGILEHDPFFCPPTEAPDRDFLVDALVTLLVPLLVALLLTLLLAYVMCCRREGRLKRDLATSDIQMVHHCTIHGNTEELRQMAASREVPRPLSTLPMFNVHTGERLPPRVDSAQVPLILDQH
Description: Western blot rescue of R98H mutant of alpha-sarcoglycan in HEK293 cell model. Type of test: cell-based. The settings on record: HEK293, 24 hours; for alpha-sarcoglycan protein level (western blot, densitometry), rescue of R98H mutant: A 2 μM. The procedure:
HEK293 cells expressing different α-SG mutants have been treated with the Compounds A, B, C, D, E, F, H, I, Q, R, S and T according to protocols developed in CF studies [Loo and Clarke 2011; Becq et al 2011, Pedemonte et al 2005; Wang et al 2006]. Concentration and time-dependent recovery of treated mutants have been evaluated by Western blotting. The proteasome inhibitor MG132, at the concentration of 10 μM, or DMSO at 1‰ concentration, have been used as positive and negative control, respectively.
In FIG. 1 the result obtained by treating cells expressing the R98H mutant of α-SG for 24 hours with Compound C 5 μM, Compound B 10 μM, Compound E 10 μM, Compound F 10 μM, Compound A 2 μM, Compound D 10 μM are shown. At the end of treatments, cells were lysed and total proteins resolved by SDS-PAGE. Western blotting has been performed by using α-SG specific antibody and β-actin specific antibody, used to normalize loaded proteins (in FIG. 1, upper panel, a representative experiment is shown). The expression of α-SG in different samples has been determined by densitometric analysis of the western blotting experiments and indicated as percentage of the protein present in cells expressing the R98H mutant treated with DMSO (negative control).
In FIG. 4 the result obtained by treating cells expressing the R98H mutant of α-SG for 24 hours with either Compound H 15 μM, Compound I 10 μM, Compound T 15 μM, Compound A 2 μM, or DMSO at 1‰ concentration, used as negative control, are shown. Cells expressing the wild type form of α-sarcoglycan have been used for comparison. At the end of treatments, cells were lysed and total proteins resolved by SDS-PAGE. Western blotting has been performed by using α-SG specific antibody and β-actin specific antibody, used to normalize loaded proteins (in upper panel of FIG. 4, a representative experiment is shown). The expression of α-SG in different samples has been determined by densitometric analysis of the western blotting experiments and indicated as percentage of the protein present in cells expressing the wild type form of α-sarcoglycan. […] The compounds tested induced the recovery of the R98H mutant to levels that in some cases were even greater than those present in HEK cells expressing the wild type protein.
(§1) In FIG. 5 the result obtained by treating cells expressing the R98H mutant of α-SG for 24 hours with either increasing concentration of Compound R (1, 2.5, 5 μM) or DMSO at 1‰ concentration, used as negative control, are shown. Cells expressing the wild type form of α-sarcoglycan have been used for comparison. At the end of treatments, cells were lysed and total proteins resolved by SDS-PAGE. Western blotting has been performed by using α-SG specific antibody and β-actin specific antibody, used to normalize loaded proteins (in upper panel of FIG. 5, a representative experiment is shown). The expression of α-SG in different samples has been determined by densitometric analysis of western blotting experiments and indicated as percentage of the protein present in cells expressing the wild type form of α-sarcoglycan.
as §1, with “6” for “5”, “Q (5, 10 μM), increasing concentration of Compound S (10, 15” for “R (1, 2.5, 5”, “1% o” for “1‰”, “6,” for “5,”

Test [2] deals with T1, R98H mutant of alpha-sarcoglycan. Description: Confocal immunofluorescence, membrane localization of R98H alpha-sarcoglycan in HEK293 cells. The test is classed as cell-based. The settings on record: HEK293, 24 hours. The procedure: The cellular localization of either the V247M or R98H mutants, upon corrector treatments, has been verified by confocal immunofluorescence.
In the experiment reported in FIG. 8, HEK 293 cells expressing the R98H mutant have been treated for 24 hours with either Compound H (15 μM), Compound I (10 μM), Compound Q (10 μM), Compound A (2 μM) or the vehicle DMSO at 1% o concentration used as negative control. By comparison, cells expressing the wild type form of α-sarcoglycan have also been used. At the end of treatments, not permeabilized cells were incubated with a monoclonal antibody specific for an extracellular epitope of α-sarcoglycan in order to mark only the membrane resident α-sarcoglycan.
In the experiment reported in FIG. 9, HEK 293 cells expressing the R98H mutant have been treated for 24 hours with either two different concentration of Compound R (2.5 and 5 μM), or the vehicle DMSO at 1‰ concentration used as negative control. By comparison, cells expressing the wild type form of α-sarcoglycan have also been used. At the end of treatments, not permeabilized cells were incubated with a monoclonal antibody specific for an extracellular epitope of α-sarcoglycan in order to mark only the membrane resident α-sarcoglycan.

[3] abbreviates: FIG. 1, C 5 μM, B 10 μM, E 10 μM, F 10 μM, D 10 μM, relative to R98H cells treated with DMSO.
Setting [4] is: FIG. 8, H 15 μM, I 10 μM, Q 10 μM, A 2 μM.
Setting [5] is: FIG. 4, H 15 μM, I 10 μM, T 15 μM, relative to cells expressing wild type.
Where [6] appears, read: FIG. 6, Compound Q 5, 10 μM, Compound S 10, 15 μM.
Setting [7] is: FIG. 6, highest concentrations (Q 10 μM, S 15 μM).

`O=S(=O)(c1ccc(Cl)cc1)N1CCN(c2ccnc3cc(Cl)ccc23)CC1` [Compound F, 7-chloro-4-(4-(4-chlorophenylsulfonyl)piperazin-1-yl)quinoline]: the “alpha-sarcoglycan protein level (western blot, densitometry), rescue of R98H mutant” value in test [1] (setting [3]) is given as “promote the rescue”.
With `COc1ccc(Cl)cc1Nc1nc(-c2sc(NC(=O)C(C)(C)C)nc2C)cs1` [Compound A, N-(2-(5-chloro-2-methoxyphenylamino)-4′-methyl-4,5′-bithiazol-2′-yl)pivalamide], the “plasma membrane localization of R98H alpha-sarcoglycan mutant” value (from here on “plasma membrane localization”) in test [2] (setting [4]) is listed as “promote the correct membrane localization”. Besides, the “alpha-sarcoglycan protein level (western blot, densitometry), rescue of R98H mutant” value in test [1] (setting [3]) and in test [1] (setting [5]) was “promote the rescue” each time.
`CC(=O)c1cccc(Nc2nc(-c3sc(NC(=O)c4ccccc4)nc3C)cs2)c1` [Compound Q, N-(2-(3-acetylphenylamino)-4′-methyl-4,5′-bithiazol-2′-yl)-benzamide]: the “plasma membrane localization” value in test [2] (setting [4]) is “promote the correct membrane localization”. Besides, the “alpha-sarcoglycan protein level, dose dependence of R98H mutant recovery” value in test [1] (setting [6]) was “dose dependent recovery”. Also, the “alpha-sarcoglycan protein level of R98H mutant versus wild type protein” value in test [1] (setting [7]) was “reached the level of the wild type protein”.
Take `COc1ccc2nc(Nc3nc(=O)c(C)c(C)[nH]3)nc(C)c2c1` [Compound T, 2-(6-methoxy-4-methylquinazolin-2-ylamino)-5,6-dimethylpyrimidin-4(1H)-one]: the “alpha-sarcoglycan protein level (western blot, densitometry), rescue of R98H mutant” value in test [1] (setting [5]) is reported as “promote the rescue”.
For `COc1ccc(Cl)cc1Nc1nc(-c2sc(NC(=O)c3ccccc3)nc2C)cs1` [Compound E, N-[2-(5-Chloro-2-methoxy-phenylamino)-4′-methyl-[4,5′]bithiazolyl-2′-yl]-benzamide], the “alpha-sarcoglycan protein level (western blot, densitometry), rescue of R98H mutant” value in test [1] (setting [3]) is on record as “promote the rescue”.
Regarding `COc1ccccc1Nc1nc(-c2sc(NC(=O)c3ccccc3)nc2C)cs1` [Compound R, N-(2-(2-methoxyphenylamino)-4′-methyl-4,5′-bithiazol-2′-yl)-benzamide], the “plasma membrane localization” value in test [2] (FIG. 9, Compound R 2.5 and 5 μM) is “promoted the correct plasma-membrane localization”. Further, the “alpha-sarcoglycan protein level, dose dependence of R98H mutant recovery” value in test [1] (FIG. 5, Compound R 1, 2.5, 5 μM) is “dose dependent recovery”. Further, the “alpha-sarcoglycan protein level of R98H mutant versus wild type protein” value in test [1] (FIG. 5, highest concentration (5 μM)) was “reached the level of the wild type protein”.
As for `Cc1cc(C)c2c(C)cc(Nc3ccccc3)nc2c1` [Compound H, 4,5,7-trimethyl-N-phenylquinolin-2-amine], the “plasma membrane localization” value in test [2] (setting [4]) was “promote the correct membrane localization”. Further, in test [1] (setting [5]), the “alpha-sarcoglycan protein level (western blot, densitometry), rescue of R98H mutant” value is listed as “promote the rescue”.
With `Cc1cc(Nc2ccc(Br)cc2)nc2ccccc12` [Compound I, N-(4-bromophenyl)-4-methylquinolin-2-amine], the “plasma membrane localization” value in test [2] (setting [4]) is “promote the correct membrane localization”. In test [1] (setting [5]), the “alpha-sarcoglycan protein level (western blot, densitometry), rescue of R98H mutant” value is given as “promote the rescue”.
As to `C=Cc1ccc(-c2csc(Nc3ccccc3)n2)cc1` [Compound S, N-phenyl-4-(4-vinylphenyl)thiazol-2-amine], the “alpha-sarcoglycan protein level, dose dependence of R98H mutant recovery” value in test [1] (setting [6]) is given as “dose dependent recovery”. Also, the “alpha-sarcoglycan protein level of R98H mutant versus wild type protein” value in test [1] (setting [7]) is “reached the level of the wild type protein”.
